Laboratory results: PMC3975887, “The structures of cytosolic and plastid-located glutamine synthetases from Medicago truncatula reveal a common and dynamic architecture” (Acta Crystallographica Section D: Biological Crystallography, 2014)
Where two headings read alike, the source gives them in different places.

Columns and labels:
M. truncatula GSII-1a = biological target: T1, M. truncatula GSII-1a (Medicago truncatula, UniProt O04998); experiment: GS synthetase reaction inhibition, GSII-1a; format: biochemical
T1 sequence (O04998 1-356): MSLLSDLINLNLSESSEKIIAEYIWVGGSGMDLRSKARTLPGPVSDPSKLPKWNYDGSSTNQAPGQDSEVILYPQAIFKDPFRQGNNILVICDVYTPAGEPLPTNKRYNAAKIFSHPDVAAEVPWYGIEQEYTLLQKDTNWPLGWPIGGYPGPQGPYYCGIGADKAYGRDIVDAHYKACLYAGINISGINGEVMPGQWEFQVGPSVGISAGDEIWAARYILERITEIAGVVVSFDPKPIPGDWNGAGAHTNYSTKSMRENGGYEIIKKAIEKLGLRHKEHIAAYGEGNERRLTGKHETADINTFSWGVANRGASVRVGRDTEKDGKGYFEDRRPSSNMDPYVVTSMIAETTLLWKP
Description: (§1) The activities of the His-tagged GS isoenzymes (GSII-1a, GSII-1b, GSII-2a and GSII-2b) were determined by quantifying the γ-glutamyl hydroxamate produced by the synthetase reaction (GSs) as described previously (Cullimore & Sims, 1981[▶]; Cullimore et al., 1982[▶]). The reactions started by the addition of 10 µg purified His-tagged GS isoenzyme to the assay mixture (100 mM Tris buffer pH 7.8, 100 mM glutamate, 8 mM ATP, 8 mM hydroxylamine, 16 mM MgSO4) were allowed to proceed at 30°C for 15 min and were stopped by adding one volume of stop solution (0.37 M FeCl3, 0.67 M HCl, 0.2 M TCA). GS specific activity was determined as the amount of γ-glutamyl hydroxamate produced per minute per milligram of purified protein (µmol min^−1 mg^−1). GS inhibition was evaluated by adding increasing concentrations of either phosphinothricin (PPT; Fluka; 0, 0.005, 0.01, 0.05, 0.1, 0.5, 1, 1.5, 2.5, 5, 10 and 20 mM) or methionine-S-sulfoximine (MSO; Sigma; 0, 0.5, 1, 1.5, 2.5, 5, 10, 20, 40 and 60 mM) to the reaction mixture. GS inhibition assays were performed at two different glutamate concentrations (20 and 100 mM). IC50 was calculated by nonlinear regression using the LogIC50 equation of GraphPad Prism5 (GraphPad Software).

M. truncatula GSII-2b = biological target: T2, M. truncatula GSII-2b (Medicago truncatula, UniProt E1ANG4); experiment: GS synthetase reaction inhibition, GSII-2b; format: biochemical
T2 sequence (E1ANG4 50-428): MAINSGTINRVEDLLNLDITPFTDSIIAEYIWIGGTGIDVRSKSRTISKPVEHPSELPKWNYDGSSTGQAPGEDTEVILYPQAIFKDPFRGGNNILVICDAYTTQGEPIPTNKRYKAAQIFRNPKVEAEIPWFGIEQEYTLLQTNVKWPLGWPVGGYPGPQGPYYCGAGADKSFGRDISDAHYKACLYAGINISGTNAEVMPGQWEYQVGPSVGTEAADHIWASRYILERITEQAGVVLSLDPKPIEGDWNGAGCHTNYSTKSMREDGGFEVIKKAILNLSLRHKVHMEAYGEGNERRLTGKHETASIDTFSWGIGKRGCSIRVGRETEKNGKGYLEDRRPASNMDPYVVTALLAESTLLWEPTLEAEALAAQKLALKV
Description: as §1

M. truncatula GSII-1b = biological target: T3, M. truncatula GSII-1b (Medicago truncatula, UniProt O04999); experiment: GS synthetase reaction inhibition, GSII-1b; format: biochemical
T3 sequence (O04999 1-356): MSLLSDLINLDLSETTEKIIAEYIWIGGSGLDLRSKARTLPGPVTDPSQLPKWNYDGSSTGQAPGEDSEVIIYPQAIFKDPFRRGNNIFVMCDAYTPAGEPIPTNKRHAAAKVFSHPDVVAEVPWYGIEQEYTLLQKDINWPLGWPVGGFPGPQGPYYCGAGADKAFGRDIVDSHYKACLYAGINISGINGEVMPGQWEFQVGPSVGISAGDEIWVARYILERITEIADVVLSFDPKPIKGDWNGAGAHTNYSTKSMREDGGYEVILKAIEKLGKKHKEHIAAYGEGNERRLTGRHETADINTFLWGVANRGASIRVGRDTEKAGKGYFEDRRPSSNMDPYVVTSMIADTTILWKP
Description: as §1

M. truncatula GSII-2a = biological target: T4, M. truncatula GSII-2a (Medicago truncatula, UniProt Q84UC1); experiment: GS synthetase reaction inhibition, GSII-2a; format: biochemical
T4 sequence (Q84UC1 50-428): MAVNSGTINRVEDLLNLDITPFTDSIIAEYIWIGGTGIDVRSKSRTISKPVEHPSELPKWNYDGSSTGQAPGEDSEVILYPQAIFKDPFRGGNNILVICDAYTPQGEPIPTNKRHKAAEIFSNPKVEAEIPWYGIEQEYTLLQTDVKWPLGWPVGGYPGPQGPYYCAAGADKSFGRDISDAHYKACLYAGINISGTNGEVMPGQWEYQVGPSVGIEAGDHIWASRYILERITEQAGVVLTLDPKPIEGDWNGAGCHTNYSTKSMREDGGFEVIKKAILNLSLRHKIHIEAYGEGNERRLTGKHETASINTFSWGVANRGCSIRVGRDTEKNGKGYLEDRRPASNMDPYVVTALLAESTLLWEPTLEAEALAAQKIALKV
Description: as §1

plant GSII = system: plant GSII; design: method as in Evstigneeva et al., 2003; settings: plant GSII overall; ref Evstigneeva et al., 2003; cited from earlier work
[1] = biological target: Medicago truncatula plastid-located glutamine synthetase GSII-2a (mature polypeptide) (Medicago truncatula); experiment: native MS; high activation conditions: collision energy increased from 100 to 200 V; ammonium acetate buffer pH 7.5; decamer to pentamers in the gas phase
[2] = biological target: Medicago truncatula plastid-located glutamine synthetase GSII-2a (mature polypeptide) (Medicago truncatula); experiment: as above; remark: listed apart in the source
[3] = biological target: Medicago truncatula plastid-located glutamine synthetase GSII-2a (mature polypeptide) (Medicago truncatula); experiment: cryo-EM structure; purified GSII-2a 0.3 mg/ml vitrified; single-particle reconstruction with D5 symmetry applied, 3117 side-view particles with parallel rings, 20 Å
[4] = biological target: Medicago truncatula plastid-located glutamine synthetase GSII-2a (mature polypeptide) (Medicago truncatula); experiment: native MS; nondenaturing conditions, ammonium acetate buffer pH 7.5, nano-electrospray, capillary voltage 1700 V, cone potential 50 V
[5] = biological target: the molecule itself; experiment: crystal structure; apo form, space group P2_(1), decamer in the asymmetric unit, 2.35 Å
[6] = MSO titration using 20 mM glutamate, His-tagged enzyme, read-out: IC50 (concentration of inhibitor reducing the GS activity by 50%)
[7] = standard GS assay conditions (100 mM glutamate)

Molecule: CS(=N)(=O)CC[C@H](N)C(=O)O (some centres unmarked) [MSO, methionine-S-sulfoximine]
- IC50 (M. truncatula GSII-1a; [6]): 9500 µM
- GS inhibition under the standard GS assay conditions (M. truncatula GSII-1a; [7]): poorly inhibited
- GS inhibition under the standard GS assay conditions (M. truncatula GSII-2b; [7]): poorly inhibited
- IC50 (M. truncatula GSII-1b; [6]): 2200 µM
- GS inhibition under the standard GS assay conditions (M. truncatula GSII-1b; [7]): poorly inhibited
- IC50 (M. truncatula GSII-2a; [6]): 3600 µM
- GS inhibition under the standard GS assay conditions (M. truncatula GSII-2a; [7]): poorly inhibited

Molecule: CP(=O)(O)CC[C@H](N)C(=O)O [PPT, phosphinothricin]
- IC50 (M. truncatula GSII-1a): 760 µM
- times more effectively inhibited by PPT than by MSO (plant GSII): 5–10 times
- IC50 (M. truncatula GSII-2b): 720 µM
- IC50 (M. truncatula GSII-1b): 670 µM
- IC50 (M. truncatula GSII-2a): 260 µM

Molecule: Medicago truncatula plastid-located glutamine synthetase GSII-2a (mature polypeptide) (enzyme)
- stoichiometry N [1]: 10
- stoichiometry N [2]: 5
- stoichiometry N [3]: 10
- stoichiometry N [4]: 10

B1: Medicago truncatula cytosolic glutamine synthetase GSII-1a (enzyme, UniProt O04998 1-356, looked up)
chain: MSLLSDLINLNLSESSEKIIAEYIWVGGSGMDLRSKARTLPGPVSDPSKLPKWNYDGSSTNQAPGQDSEVILYPQAIFKDPFRQGNNILVICDVYTPAGEPLPTNKRYNAAKIFSHPDVAAEVPWYGIEQEYTLLQKDTNWPLGWPIGGYPGPQGPYYCGIGADKAYGRDIVDAHYKACLYAGINISGINGEVMPGQWEFQVGPSVGISAGDEIWAARYILERITEIAGVVVSFDPKPIPGDWNGAGAHTNYSTKSMRENGGYEIIKKAIEKLGLRHKEHIAAYGEGNERRLTGKHETADINTFSWGVANRGASVRVGRDTEKDGKGYFEDRRPSSNMDPYVVTSMIAETTLLWKP
notes: Glutamine synthetase GSII-1a, cytosolic, Medicago truncatula, UniProt O04998; Apo form; also called MtGSII-1a; MtGSII1a; source: recombinant, N-terminally His-tagged; cloning and crystallisation described previously (Seabra et al., 2009); not shown: His tag, N-terminal, kept; copies: 10
- stoichiometry N [5]: 10
